In patent publication US10653699B2, “Controlled-release tozadenant formulations” (BIOTIE THERAPIES, INC., priority 2015, dated 2020):

Experiments:
[1] = Clinical study of immediate-release tozadenant: treatment-emergent adverse events, Cmax and Css (Table 18); format: in vivo, human; conditions: for Total AEs/subject / concentration at 14 day / Cmax: immediate-release formulation; for Total Number of AEs: immediate-release formulation (N = 6); for concentration at 14 day / Cmax: human, plasma; for Cmax: read-out: Cmax (ng/mL) at Day 14
Procedure: Advantages of controlled-release formulations compared to immediate-release formulations include: lower incidence of adverse events; improved tolerability; reduced frequency of dosing; and improved compliance due to reduced frequency of dosing.
An example of an efficacious dose of tozadenant is 120 mg of an immediate-release formulation administered twice a day (BID). […] Thus, a CR formulation could be designed to achieve an efficacious Css lower than the plasma levels (Cmax) that result in AEs. An efficacious CR formulation would preferably result in a Css in the range of 0.5-3.0 μg/mL.

[2] = Physical characterization of tozadenant API; format: physicochemical
Text: The active pharmaceutical ingredient (API) was very fine, with ˜60% fines. […] The observed loss upon drying indicated a low amount of water and volatile matter in API.

[3] = Treatment-emergent adverse events and tozadenant plasma Cmax by dose in patients (Table 19); format: in vivo, human; conditions: for Cmax at 6 week / Cmax: human, oral; for Cmax at 6 week: maximum plasma concentration in group of 63-75 patients, time since last dose unknown; for Cmax: plasma, read-out: Cmax (ng/mL) at ~5 hr postdose at Day 1
Text: Table 19 summarizes the dose response of AEs observed in patients taking tozadenant alongside the plasma Cmax. A clear trend of increasing AEs and discontinuation of therapy is seen with doses that result in higher tozadenant Cmax. A controlled-release formulation can be used to achieve the drug levels (Css) that are therapeutically effective while avoiding the high plasma Cmax and AEs associated with high doses of an IR formulation.

In the case of `COc1ccc(N2CCOCC2)c2sc(NC(=O)N3CCC(C)(O)CC3)nc12` [tozadenant, 4-hydroxy-4-methyl-piperidine-1-carboxylic acid (4-methoxy-7-morpholin-4-yl-benzothiazol-2-yl)-amide], the Css ([1]; 120 mg of an immediate-release formulation administered twice a day (BID)) is reported as “about 2.4 μg/mL”, the “Total AEs/subject” value ([1]; 120 BID) is reported as 0.7 and the “Total Number of AEs” value ([1]; 120 BID) is reported as 4. For the same compound, the “Total AEs/subject” value ([1]; 240 BID) was 4.0, the “Total Number of AEs” value ([1]; 240 BID) was 24 and the “Total AEs/subject” value ([1]; 240 QD) was 2.7. For the same compound, the “Total Number of AEs” value ([1]; 240 QD) was 16, the “Total AEs/subject” value ([1]; 480 QD) was 5.0 and the “Total Number of AEs” value ([1]; 480 QD) was 30. The concentration at 14 day ([1]; 120 mg, 120 BID) was 2360 ng/mL, the Cmax ([1]; 120 mg, 120 BID) was 2970 ng/mL and the concentration at 14 day ([1]; 240 mg, 240 BID) was 4810 ng/mL. For the same compound, the Cmax ([1]; 240 mg, 240 BID) was 6160 ng/mL, the concentration at 14 day ([1]; 240 mg, 240 QD) was 2080 ng/mL and the Cmax ([1]; 240 mg, 240 QD) was 3440 ng/mL. The concentration at 14 day ([1]; 480 mg, 480 QD) was 3500 ng/mL, the Cmax ([1]; 480 mg, 480 QD) was 5120 ng/mL and the “Bulk density” value [2] was 0.1948 g/mL. The Compressibility index [2] was 35.065, the “Fines Portion (# 60 pass portion)” value [2] was 60.00% and the “Granular Portion (# 60 Retain portion)” value [2] was 40.00%. The Hausner ratio [2] was 1.5406, the “Tapped density” value [2] was 0.3000 g/mL and the “Particle size distribution (% Retention)” value ([2]; ASTM # 20 mesh (841μ)) was 0.00%. The “Particle size distribution (% Retention)” value ([2]; ASTM # 40 mesh (420μ)) was 7.00%, the “Particle size distribution (% Retention)” value ([2]; ASTM # 60 mesh (250μ)) was 33.00% and the “Particle size distribution (% Retention)” value ([2]; ASTM # 80 mesh (177μ)) was 18.00%. The “Particle size distribution (% Retention)” value ([2]; ASTM # 100 mesh (149μ)) was 16.00%, the “Particle size distribution (% Retention)” value ([2]; ASTM # 200 mesh (75μ)) was 21.00% and the “Particle size distribution (% Retention)” value ([2]; Pan) was 5.00%. The Loss on drying ([2]; at 105° C. for 5 minutes) was 0.400 % w/w, the “Patients discontinuing due to AEs, %” value ([3]; 60 mg BID) was 8% and the “Patients with no AE, %” value ([3]; 60 mg BID) was 28%. For the same compound, the “Patients with ≥ 1 AE related to study drug, %” value (“Patients … to study drug, %” for short) ([3]; 60 mg BID (N = 85)) was 44%, the “Patients discontinuing due to AEs, %” value ([3]; 120 mg BID) was 12% and the “Patients with no AE, %” value ([3]; 120 mg BID) was 26%. The “Patients … to study drug, %” value ([3]; 120 mg BID (N = 82)) was 55%, the “Patients discontinuing due to AEs, %” value ([3]; 180 mg BID) was 12% and the “Patients with no AE, %” value ([3]; 180 mg BID) was 21%. For the same compound, the “Patients … to study drug, %” value ([3]; 180 mg BID (N = 85)) was 55%, the “Patients discontinuing due to AEs, %” value ([3]; 240 mg BID) was 20% and the “Patients with no AE, %” value ([3]; 240 mg BID) was 18%. The “Patients … to study drug, %” value ([3]; 240 mg BID (N = 84)) was 63%, the Cmax at 6 week ([3]; 60 mg BID) was 2570 ng/mL and the Cmax ([3]; 60 mg BID) was 424 ng/mL. The Cmax at 6 week ([3]; 120 mg BID) was 3910 ng/mL, the Cmax ([3]; 120 mg BID) was 680 ng/mL and the Cmax at 6 week ([3]; 180 mg BID) was 5460 ng/mL. For the same compound, the Cmax ([3]; 180 mg BID) was 999 ng/mL, the Cmax at 6 week ([3]; 240 mg BID) was 6630 ng/mL and the Cmax ([3]; 240 mg BID) was 1150 ng/mL.
